From patent US20230212164A1, “ANNULATED 2-AMINO-3-CYANO THIOPHENES AND DERIVATIVES FOR THE TREATMENT OF CANCER” (BOEHRINGER INGELHEIM INTERNATIONAL GMBH, priority 2020, published 2023) come the findings set out here.

In assay [1] the target is T1, protein-protein interaction between SOS1 and KRAS G12C (Homo sapiens, UniProt P01116, C118S/C51S/C80L/G12C).
T1 construct: His6 (N)
Nature of the assay: KRAS::SOS1 AlphaScreen binding assay. (In general: Alpha assays give light when donor and acceptor beads are brought close together.)

Assay [2] addresses KRASG12-dependent Ba/F3 cells (Homo sapiens, UniProt P01116, G12C, cells depend on it). As to the kind of experiment: Ba/F3 cell model proliferation assay (AlamarBlue, 72 h). Format: cell-based. The note with it: Ba/F3 cells transduced with KRASG12C, read-out: IC50 Ba/F3 KRASG12C.
Assay [3] has as its system SW837 cells. As to the kind of experiment: SW 837 CTG proliferation assay (CRC). Format: cell-based. The note with it: Homo sapiens. Here is the method: SW837 cells (ATCC #CCL-235) were grown in cell culture flasks (175 cm^2) using L-15 10% FCS, 1% L-Glu, 1xNEAA and 1× Na-Pyrovat. Cultures were incubated at 37° C. and 0% CO2 in a humidified atmosphere, with medium change or subcultivation 2-3 times a week. Materials used for the assay were CulturPlate-384, White Opaque 384-well Microplate, Sterile and Tissue Culture Treated (Perkin Elmer #6007680), Leibovitz L15 Medium and FBS #SH30071.03 (HyClone).
(§1) The proliferation assays started (day1) with seeding cells in flat bottom 384 well microtiter plates in 90 μL L-15 10% FCS, 1% L-Glu, 1xNEAA and 1×Na-Pyrovat at a density of 500 cells/well. Any other luminescence compatible plate format is possible. On day 2, 10 μL dilutions of the test compounds covering a concentration range between app. 0,1 and 10.000 nM were added to the cells. Cells were incubated for 5 days in a humidified, CO2 controlled (no CO2) incubator at 37° C. On day 7 100 μL of Cell Titer Glow reagent (Cell titer Glo Luminescent Cat. No. G7571, Promega) were added to each well and incubated for additional 10 min at room temperature (with agitation). Luminescence was measured on a Wallac Victor using standard luminescence read out. IC50 values were calculated using standard Levenburg Marquard algorithms (GraphPad Prism).

Assay [4] relates to MiaPaCa-2 cells. As to the kind of experiment: MiaPaCa-2 CTG proliferation assay (pancreatic cancer). Format: cell-based. To be noted: Homo sapiens, MIA PaCa-2, 120 h, 5 days, read-out: IC50 MiaPACA2. As to the method:
as §1, with “μL DMEM medium supplemented with” for “μL L-15”, “10% FBS” for “10% FCS, 1% L-Glu, 1xNEAA and 1×Na-Pyrovat”, “humidified, incubator with 5%” for “humidified,”, “CO2” for “CO2 controlled (no CO2) incubator”, “100 μl” for “100 μL”

For assay [5], the system named is NCI-H358 cells. Nature of the assay: NCI-H358 CTG proliferation assay (120 h) (NSCLC). The class given is cell-based. To be noted: Homo sapiens. Here is the method: NCI-H358 cells (ATCC No. CRL-5807) were dispensed into white bottom opaque 96 well plates (Perkin Elmer cat no. 5680) at a density of 2000 cells per well in 100 μL RPMI-1640 ATCC-Formulation (Gibco #A10491)+10% FCS. Cells were incubated overnight at 37° C. in a humidified tissue culture incubator at 5% CO2. Compounds (10 mM stock in DMSO) were added at logarithmic dose series using the HP Digital Dispenser D300 (Tecan), normalizing for added DMSO. For the T0 time point measurement, untreated cells were analyzed at the time of compound addition. Plates were incubated for 120 hours, and cell viability was measured using CellTiter-Glo luminescent cell viability reagent (Promega product code G7570). Viability (stated as percent of control) is defined as relative luminescence units RLU of each well divided by the RLU of cells in DMSO controls. IC50 values were determined from viability measurements by non-linear regression using a four parameter model.

The test system of assay [6] is pERK (Thr202/Tyr204) in NCI-H358_Cas9_SOS2 (SOS2 knocked). As to the kind of experiment: ERK phosphorylation assay 2 (AlphaLISA SureFire Ultra p-ERK1/2). To be noted: read-out: IC50 H358 pERK, ERK phosphorylation assay 2 (values marked with *).
Protocol: ERK Phosphorylation Assay
Low IC50 values in this assay setting are indicative of high potency of the compounds according to the invention.
GFP positive cells were collected and further expanded. These GFP-positive cell pools were single-cell diluted and SOS2 knock-out clones were identified via Western-blot and genomic DNA sequencing analysis.
Materials Used for the Assay:
AlphaLISA SureFire Ultra p-ERK1/2 (Thr202/Tyr204) Assay Kit (ALSU-PERK-A500)
Cells are seeded at 40,000 cells per well in /60 μL of RPMI with 10% FBS, non-essential amino acids, pyruvate and glutamax in Greiner TC 384 plates. The cells are incubated for 1 h at room temperature and then incubated overnight in an incubator at 37° C. and 5% CO2 in a humidified atmosphere. 60 nL compound solution (10 mM DMSO stock solution) is then added using a Labcyte Echo 550 device. After a 1 h incubation in the aforementioned incubator the medium is removed after centrifugation and the cells lysed by addition of 20 μL of 1.6-fold lysis buffer from the AlphaLISA SureFire Ultra pERK1/2 (Thr202/Tyr204) Assay Kit with added protease inhibitors, 100 nM trametinib+100 nM staurosporine. After 20 minutes of incubation at room temperature with shaking, 6 μL of each lysate sample is transferred to a 384-well Proxiplate and analyzed for pERK (Thr202/Tyr204) with the AlphaLISA SureFire Ultra pERK1/2 (Thr202/Tyr204) Assay Kit. 3 μL Acceptor Mix and 3 μL Donor Mix are added under subdued light and incubated for 2 h at room temperature in the dark, before the signal is measured on a PerkinElmer Envision HTS Multilabel Reader. The raw data were imported into and analyzed with the Boehringer Ingelheim proprietary software MegaLab (curve fitting based on the program PRISM, GraphPad Inc.).

Where only a bound is given, the exact number is not on record here.

T1 sequence (P01116 1-169 isoform P01116-2 G12C/C51S/C80L/C118S): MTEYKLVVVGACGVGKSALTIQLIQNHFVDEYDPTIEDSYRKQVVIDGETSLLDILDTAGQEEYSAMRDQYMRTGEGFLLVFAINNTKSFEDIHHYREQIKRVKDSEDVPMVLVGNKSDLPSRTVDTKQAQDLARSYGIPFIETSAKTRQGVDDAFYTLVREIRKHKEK
Sequence of KRASG12-dependent Ba/F3 cells (P01116 whole entry G12C): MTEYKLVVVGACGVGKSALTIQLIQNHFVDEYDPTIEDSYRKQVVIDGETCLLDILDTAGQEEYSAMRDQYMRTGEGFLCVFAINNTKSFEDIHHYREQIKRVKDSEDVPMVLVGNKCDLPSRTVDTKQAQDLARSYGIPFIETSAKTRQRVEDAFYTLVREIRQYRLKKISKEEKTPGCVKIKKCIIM

Regarding `C=CC(=O)N1CCN(c2cc(-c3noc([C@@]4(C)CCCc5sc(N)c(C#N)c54)n3)nc(O[C@@H](C)[C@@H]3CCCN3C)n2)CC1` [Ia-46], the IC50 was 1.7 nM in assay [1] (Table 36); less than 1 nM in assay [3]; 3 nM in assay [4]; 0.95 nM in assay [5]; 2.1 nM in assay [6]. In addition, the GI50 in assay [2] came to 4.4 nM.
On to `C=CC(=O)N1CCN(c2cc(-c3noc([C@@]4(C)CCCc5sc(N)c(C#N)c54)n3)nc(O[C@@H](C)[C@@H]3CCCN3C)n2)[C@@H](C)C1` [Ia-54], for which the IC50 in assay [1] (Table 36) amounted to 1.6 nM; in assay [3], 2.25 nM; in assay [4], 2.22 nM; in assay [5], 1.34 nM; in assay [6] it was 2.2 nM. In assay [2], the GI50 worked out at 4.3 nM.
On to `C=CC(=O)N1CCN(c2cc(-c3noc([C@@]4(C)CCCc5sc(N)c(C#N)c54)n3)nc(O[C@@H](C)[C@@H]3CCCN3C)n2)C[C@@H]1C` [Ia-61], for which the IC50 is 1.6 nM in assay [1] (Table 36); 0.63 nM in assay [3]; 4.23 nM in assay [4]; 0.67 nM in assay [5]; 1.3 nM in assay [6]. Further, the GI50 in assay [2] was 2.3 nM.
Regarding `C=CC(=O)N1[C@@H](C)CN(c2cc(-c3noc([C@@]4(C)CCCc5sc(N)c(C#N)c54)n3)nc(O[C@@H](C)[C@@H]3CCCN3C)n2)C[C@@H]1C` [Ia-62], the IC50 was found to be 1.6 nM in assay [1] (Table 36); 0.42 nM in assay [3]; 6.77 nM in assay [4]; 1.01 nM in assay [5]; 1.2 nM in assay [6]. Moreover, the GI50 in assay [2] is 1.2 nM.
Consider `C=CC(=O)N1[C@H](C)CN(c2cc(-c3noc([C@@]4(C)CCCc5sc(N)c(C#N)c54)n3)nc(O[C@@H](C)[C@@H]3CCCN3C)n2)C[C@@H]1C` [Ia-64], for which the half-inhibitory concentration (IC50) in assay [1] (Table 36) was 2.2 nM; in assay [3] it was 6.34 nM; in assay [4], 12.1 nM; in assay [5] it was 7.42 nM; in assay [6] it was 3.5 nM. The GI50 in assay [2] was determined as 12 nM.
With `C=CC(=O)N1CCN(c2cc(O[C@@H](C)[C@@H]3CCCN3C)nc(-c3noc([C@@]4(C)CCCc5sc(N)c(C#N)c54)n3)n2)CC12CC2` [Ia-77], the IC50 was 2 nM in assay [1] (Table 36); 4.11 nM in assay [3]; 13.3 nM in assay [4]; 4.2 nM in assay [5]; 2.6 nM in assay [6]. For the same compound, the GI50 in assay [2] was found to be 6.9 nM.
With `C=CC(=O)N1[C@H](C)CC(Oc2cc(O[C@@H](C)[C@@H]3CCCN3C)nc(-c3noc([C@@]4(C)CCCc5sc(N)c(C#N)c54)n3)c2)C[C@H]1C` (stereo partly shown) [Ia-86], the IC50 was found to be 2 nM in assay [1] (Table 36); 2.08 nM in assay [3]; 13.8 nM in assay [4]; 4.67 nM in assay [5]; 3.9 nM in assay [6]. The GI50 in assay [2] amounted to 7 nM.
Take `C=CC(=O)N1C[C@H](C)N(c2cc(-c3noc([C@@]4(C)CCCc5sc(N)c(C#N)c54)n3)nc(O[C@@H](C)[C@@H]3CCCN3C)n2)C[C@H]1C` [Ia-133]: the IC50 in assay [1] (Table 36) stood at 12 nM; in assay [3] it was 71 nM; in assay [4], 673 nM; in assay [5], 41.4 nM; in assay [6] it was 28.9 nM. Further, in assay [2], the GI50 stood at 77.7 nM.
For `COC/C=C/C(=O)N1CCN(c2cc(-c3noc([C@@]4(C)CCCc5sc(N)c(C#N)c54)n3)nc(O[C@@H](C)[C@@H]3CCCN3C)n2)CC12CC2` [Ia-160], the IC50 worked out at 11 nM in assay [1] (Table 37) and 25.3 nM in assay [6]. Moreover, the GI50 in assay [2] came to 116 nM.
For `COC/C=C\C(=O)N1CCN(c2cc(O[C@@H](C)[C@@H]3CCCN3C)nc(-c3noc([C@@]4(C)CCCc5sc(N)c(C#N)c54)n3)n2)CC12CC2` [Ia-161], in that order: 21 nM, 26.5 nM and 162 nM.
For `C/C=C/C(=O)N1CCN(c2cc(-c3noc([C@@]4(C)CCCc5sc(N)c(C#N)c54)n3)nc(O[C@@H](C)[C@@H]3CCCN3C)n2)CC12CC2` [Ia-163], in that order: 22 nM, 81.3 nM and 431 nM.
Turning to `CC#CC(=O)N1CCN(c2cc(O[C@@H](C)[C@@H]3CCCN3C)nc(-c3noc([C@@]4(C)CCCc5sc(N)c(C#N)c54)n3)n2)CC12CC2` [Ia-165], the IC50 in assay [1] (Table 38) and in assay [6] was 4 nM each time. In addition, the GI50 in assay [2] stood at 12.5 nM.
As to `CC#CC(=O)N1CCN(c2cc(-c3noc([C@@]4(C)CCCc5sc(N)c(C#N)c54)n3)nc(O[C@@H](C)[C@@H]3CCCN3C)n2)CC12CC2` [Ia-166], the 50% inhibitory concentration (IC50) in assay [1] (Table 38) worked out at 3 nM; in assay [6], 4.2 nM. Besides, the GI50 in assay [2] amounted to 13.4 nM.
The like results for `CC#CC(=O)N1CCN(c2cc(-c3noc([C@@]4(C)CCCc5sc(N)c(C#N)c54)n3)nc(O[C@@H](C)[C@@H]3CCCN3C)n2)C2CCCC21` (stereo partly shown) [Ia-167] were, in that order, 15 nM, 77.2 nM and 189 nM.
Take `C[C@H](Oc1nc(-c2noc([C@@]3(C)CCCc4sc(N)c(C#N)c43)n2)cc(N2CCN(C/C=C/C(=O)N(C)C)CC2)n1)[C@@H]1CCCN1C` [Ia-169]: the IC50 came to 40 nM in assay [1] (Table 39) and 1840 nM in assay [6]. In addition, in assay [2], the GI50 worked out at 7730 nM.
As to `C=CC(=O)N1CCN(c2nc(=O)n(-c3c(C)ccnc3C(C)C)c3nc(-c4c(O)cccc4F)c(F)cc23)[C@@H](C)C1` [sotorasib, reference compound], the IC50 in assay [5] was 21 nM.

As a reminder, the IC50 is the point on the concentration scale where inhibition reaches its midpoint.
